In patent US10961200B2, “Small molecule inhibitors of lactate dehydrogenase and methods of use thereof” (THE UNITED STATES OF AMERICA, AS REPRESENTED BY THE …, priority 2014, dated 2021):
Structures can show the parent of a compound that is named as a salt. Where two headings read alike, the source gives them in different places.

Legend:
[1] = molecular target: Human LDHA (Homo sapiens (Human), UniProt P00338); assay: human LDHA primary biochemical assay (resazurin/diaphorase coupled, fluorescence)
Text: Test compounds were placed in a Greiner Bio-One (Monroe, N.C.) 1536-well black solid bottom assay plate. 200 millimolar (mM) Tris HCl, pH 7.4, 100 micromolar […] EDTA and 0.01% TWEEN-20™, final concentration, was used as the assay buffer. The LDHA reagent was 2 nanomolar (nM) Human LDHA (Meridian Life Science, Inc., Memphis, Tenn.), final concentration, in assay buffer.

[2] = test system: MiaPaCa2 cells; assay: cell-based HT lactate assay, colorimetric/fluorometric detection (inhibition of lactate production); conditions: class symbols, 0 to 3 pluses
Procedure: Cell-based HT Lactate assay is a miniaturized Biovision Lactate Colorimetric/Fluorometric Assay Kit (Cat #K607-100). The assay is roughly a 3.5 hour assay run in a 1536 plate format. Cell number optimization should be run for each cell line to achieve an optimal number in which lactate production equals roughly 90% of the standard curve range. Cell number per well optimization has been performed with the following cell lines: MiaPaCa2—500 cells/well, SNU398—500 cells/well, and P493—500 cells/well.
The lactate activity in Table 8 is represented by 0 to 3 pluses as follows: +++<1 μM; ++1-10 μM; +10-57 μM; and −>57 μM.

[3] = LDHA inhibitory activity, assay of Example 1, activity level classes
[4] = read-out: Inhibitory activity IC50

IC50 [1, 3] [nM]	IC50 ([2]; Homo sapiens, MIA PaCa-2) [nM]	IC50 [1, 4] [nM]	IC50 [2] [nM]	Compound
< 100	1000 to 10000			NS(=O)(=O)c1ccc(Cc2c(-c3cccc(-c4ccccc4)c3)nn(-c3nc(C(=O)O)cs3)c2CC2CC2(F)F)cc1 (stereo not drawn) [Compound 207, 2-(3-([1,1′-biphenyl]-3-yl)-5-((2,2-difluorocyclopropyl)methyl)-4-(4-sulfamoylbenzyl)-1H-pyrazol-1-yl)thiazole-4-carboxylic acid]
> 57000	> 57000			Cn1c(C(=O)O)cnc1-n1cc(Cc2ccc(S(N)(=O)=O)cc2)c(-c2ccccc2)n1 [Compound 212, 1-methyl-2-(3-phenyl-4-(4-sulfamoylbenzyl)-1H-pyrazol-1-yl)-1H-imidazole-5-carboxylic acid]
	> 57000	1000 to 57000		NS(=O)(=O)c1ccc(Cc2cn(-c3cc(C(=O)O)cs3)nc2-c2ccccc2)cc1 [Compound 213, 5-(3-phenyl-4-(4-sulfamoylbenzyl)-1H-pyrazol-1-yl)thiophene-3-carboxylic acid]
	1000 to 10000	< 100		Cn1cc(-c2cc(-c3nn(-c4nc(C(=O)O)cs4)c(CC4CC4)c3Cc3ccc(S(N)(=O)=O)cc3F)ccc2F)cn1 [Compound 214, 2-(5-(cyclopropylmethyl)-3-(4-fluoro-3-(1-methyl-1H-pyrazol-4-yl)phenyl)-4-(2-fluoro-4-sulfamoylbenzyl)-1H-pyrazol-1-yl)thiazole-4-carboxylic acid]
	10000 to 57000	< 100		Cc1noc(C)c1-c1cc(-c2nn(-c3nc(C(=O)O)cs3)c(CC3CC3)c2Cc2ccc(S(N)(=O)=O)cc2F)ccc1F [Compound 215, 2-(5-(cyclopropylmethyl)-3-(3-(3,5-dimethylisoxazol-4-yl)-4-fluorophenyl)-4-(2-fluoro-4-sulfamoylbenzyl)-1H-pyrazol-1-yl)thiazole-4-carboxylic acid]
	1000 to 10000	< 100		Cn1cc(-c2cc(-c3nn(-c4nc(C(=O)O)cs4)c(CC4CC4)c3Cc3ccc(S(N)(=O)=O)c(F)c3)ccc2F)cn1 [Compound 217, 2-(5-(cyclopropylmethyl)-3-(4-fluoro-3-(1-methyl-1H-pyrazol-4-yl)phenyl)-4-(3-fluoro-4-sulfamoylbenzyl)-1H-pyrazol-1-yl)thiazole-4-carboxylic acid]
	1000 to 10000	< 100		Cc1noc(C)c1-c1cc(-c2nn(-c3nc(C(=O)O)cs3)c(CC3CC3)c2Cc2ccc(S(N)(=O)=O)c(F)c2)ccc1F [Compound 219, 2-(5-(cyclopropylmethyl)-3-(3-(3,5-dimethylisoxazol-4-yl)-4-fluorophenyl)-4-(3-fluoro-4-sulfamoylbenzyl)-1H-pyrazol-1-yl)thiazole-4-carboxylic acid]
	< 1000	< 100		Cc1csc(-c2cc(-c3nn(-c4nc(C(=O)O)cs4)c(CC4CC4)c3Cc3ccc(S(N)(=O)=O)cc3F)ccc2F)c1 [Compound 221, 2-(5-(cyclopropylmethyl)-3-(4-fluoro-3-(4-methylthiophen-2-yl)phenyl)-4-(2-fluoro-4-sulfamoylbenzyl)-1H-pyrazol-1-yl)thiazole-4-carboxylic acid]
	< 1000	< 100		Cc1csc(-c2cc(-c3nn(-c4nc(C(=O)O)cs4)c(CC4CC4)c3Cc3ccc(S(N)(=O)=O)c(F)c3)ccc2F)c1 [Compound 223, 2-(5-(cyclopropylmethyl)-3-(4-fluoro-3-(4-methylthiophen-2-yl)phenyl)-4-(3-fluoro-4-sulfamoylbenzyl)-1H-pyrazol-1-yl)thiazole-4-carboxylic acid]
	< 1000	< 100		Cc1ccc(-c2cc(-c3nn(-c4nc(C(=O)O)cs4)c(CC4CC4)c3Cc3ccc(S(N)(=O)=O)c(F)c3)ccc2F)s1 [Compound 227, 2-(5-(cyclopropylmethyl)-3-(4-fluoro-3-(5-methylthiophen-2-yl)phenyl)-4-(3-fluoro-4-sulfamoylbenzyl)-1H-pyrazol-1-yl)thiazole-4-carboxylic acid]
	> 57000	> 57000		CCOC(=O)c1csc(-n2nc(-c3ccc(F)c(-c4ccc(C)s4)c3)c(Cc3ccc(S(N)(=O)=O)c(F)c3)c2CC2CC2)n1 [Compound 229, ethyl 2-(5-(cyclopropylmethyl)-3-(4-fluoro-3-(5-methylthiophen-2-yl)phenyl)-4-(3-fluoro-4-sulfamoylbenzyl)-1H-pyrazol-1-yl)thiazole-4-carboxylate]
	< 1000	< 100		Cc1ccc(-c2cc(-c3nn(-c4nc(C(=O)O)cs4)c(CC4CC4)c3Cc3ccc(S(N)(=O)=O)c(F)c3)ccc2F)o1 [Compound 230, 2-(5-(cyclopropylmethyl)-3-(4-fluoro-3-(5-methylfuran-2-yl)phenyl)-4-(3-fluoro-4-sulfamoylbenzyl)-1H-pyrazol-1-yl)thiazole-4-carboxylic acid]
	< 1000	< 100		Cc1cnc(-c2cc(-c3nn(-c4nc(C(=O)O)cs4)c(CC4CC4)c3Cc3ccc(S(N)(=O)=O)c(F)c3)ccc2F)s1 [Compound 231, 2-(5-(cyclopropylmethyl)-3-(4-fluoro-3-(5-methylthiazol-2-yl)phenyl)-4-(3-fluoro-4-sulfamoylbenzyl)-1H-pyrazol-1-yl)thiazole-4-carboxylic acid, TFA]
	< 1000	< 100		Cc1ncc(-c2cc(-c3nn(-c4nc(C(=O)O)cs4)c(CC4CC4)c3Cc3ccc(S(N)(=O)=O)c(F)c3)ccc2F)s1 [Compound 232, 2-(5-(cyclopropylmethyl)-3-(4-fluoro-3-(2-methylthiazol-5-yl)phenyl)-4-(3-fluoro-4-sulfamoylbenzyl)-1H-pyrazol-1-yl)thiazole-4-carboxylic acid]
	< 1000	< 100		Cc1ccc(-c2cc(-c3nn(-c4nc(C(=O)O)cs4)c(CC4CC4)c3Cc3ccc(S(N)(=O)=O)cc3F)ccc2F)s1 [Compound 233, 2-(5-(cyclopropylmethyl)-3-(4-fluoro-3-(5-methylthiophen-2-yl)phenyl)-4-(2-fluoro-4-sulfamoylbenzyl)-1H-pyrazol-1-yl)thiazole-4-carboxylic acid]
	< 1000	< 100		NS(=O)(=O)c1ccc(Cc2c(-c3ccc(F)c(-c4cccs4)c3)nn(-c3nc(C(=O)O)cs3)c2CC2CC2)cc1F [Compound 234, 2-(5-(cyclopropylmethyl)-3-(4-fluoro-3-(thiophen-2-yl)phenyl)-4-(3-fluoro-4-sulfamoylbenzyl)-1H-pyrazol-1-yl)thiazole-4-carboxylic acid, TFA]
< 100			1000 to 10000	COc1cccc(-c2cc(-c3nn(-c4nc(C(=O)O)cs4)c(CC4CC4)c3Cc3ccc(S(N)(=O)=O)cc3)ccc2F)c1 [Compound 237]
< 100			< 1000	NS(=O)(=O)c1ccc(Cc2c(-c3ccc(F)c(-c4cccc(F)c4)c3)nn(-c3nc(C(=O)O)cs3)c2CC2CC2)cc1 [Compound 239]
< 100			1000 to 10000	NS(=O)(=O)c1ccc(Cc2c(-c3ccc(F)c(-c4cccc(F)c4)c3)nn(-c3nc(C(=O)O)cs3)c2C2CC2)cc1F [Compound 251]
< 100			< 1000	NS(=O)(=O)c1ccc(Cc2c(-c3ccc(F)c(-c4ccccc4)c3)nn(-c3nc(C(=O)O)cs3)c2CC2CC2)cc1 [Compound 257]

Compound	IC50 [1, 3] [nM]	IC50 ([2]; Homo sapiens, MIA PaCa-2) [nM]	IC50 [1, 4] [nM]	IC50 [2] [nM]
COc1cccc(-c2cc(-c3nn(-c4nc(C(=O)O)cs4)c(C4CC4)c3Cc3ccc(S(N)(=O)=O)c(F)c3)ccc2F)c1 [Compound 252]	< 100			1000 to 10000
